Assay [1] concerns the target T1, Amine oxidase [flavin-containing] B (Homo sapiens, UniProt P27338).
T1 sequence (P27338 whole entry): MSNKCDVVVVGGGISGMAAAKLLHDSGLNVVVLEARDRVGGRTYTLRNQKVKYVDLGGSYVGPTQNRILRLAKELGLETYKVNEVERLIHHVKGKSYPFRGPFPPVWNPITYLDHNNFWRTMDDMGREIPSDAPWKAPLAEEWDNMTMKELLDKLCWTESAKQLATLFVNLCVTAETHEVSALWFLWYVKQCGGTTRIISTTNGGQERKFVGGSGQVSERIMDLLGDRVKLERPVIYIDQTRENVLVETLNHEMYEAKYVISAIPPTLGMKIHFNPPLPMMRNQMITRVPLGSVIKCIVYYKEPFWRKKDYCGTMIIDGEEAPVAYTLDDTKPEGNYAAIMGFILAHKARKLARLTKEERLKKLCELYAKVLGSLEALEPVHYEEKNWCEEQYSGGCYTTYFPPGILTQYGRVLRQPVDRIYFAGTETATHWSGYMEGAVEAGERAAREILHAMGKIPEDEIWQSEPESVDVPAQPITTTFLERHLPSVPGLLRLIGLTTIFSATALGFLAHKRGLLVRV
Description: Inhibition of recombinant human MAO-B using p-tyramine as substrate preincubated for 15 mins followed by substrate addition measured over 15 mins by Amplex red reagent-based fluorimetric method.

For a further assay, the species on record is Homo sapiens. Description: Selectivity index, ratio of IC50 for recombinant human MAO-A to IC50 for recombinant human MAO-B.
The target in assay [2] is T2, Amine oxidase [flavin-containing] A (Homo sapiens, UniProt P21397).
T2 sequence (P21397 whole entry): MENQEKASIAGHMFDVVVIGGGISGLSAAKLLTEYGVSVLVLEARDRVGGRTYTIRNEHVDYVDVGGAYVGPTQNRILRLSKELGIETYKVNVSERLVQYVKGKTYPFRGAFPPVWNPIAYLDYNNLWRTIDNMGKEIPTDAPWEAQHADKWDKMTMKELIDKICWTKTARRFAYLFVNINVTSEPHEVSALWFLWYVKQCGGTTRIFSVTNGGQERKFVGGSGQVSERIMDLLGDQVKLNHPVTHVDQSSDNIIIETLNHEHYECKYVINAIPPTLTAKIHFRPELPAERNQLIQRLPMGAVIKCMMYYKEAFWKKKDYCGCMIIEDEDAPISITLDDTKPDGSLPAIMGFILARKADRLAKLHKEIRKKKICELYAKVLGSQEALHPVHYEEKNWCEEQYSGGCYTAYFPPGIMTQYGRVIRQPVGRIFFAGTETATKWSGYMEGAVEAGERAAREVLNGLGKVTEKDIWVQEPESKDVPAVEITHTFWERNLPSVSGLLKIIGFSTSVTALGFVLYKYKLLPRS
Briefly: Inhibition of recombinant human MAO-A using p-tyramine as substrate preincubated for 15 mins followed by substrate addition measured over 15 mins by Amplex red reagent-based fluorimetric method.

`C#CCNC1CCc2c(SCc3ccccc3)cccc21` (centres undefined): the IC50 in assay [1] was 6.24 µM; in assay [2] it was over 60 µM. Further, in the assay filed under Homo sapiens, the Ratio IC50 was over 9.62.

As for `C#CCNC1CCc2c(OCc3ccc(F)c(F)c3)cccc21` (centres undefined), the IC50 in assay [1] stood at 1.41 µM; in assay [2], 7.22 µM. For the same compound, the Ratio IC50 in the assay filed under Homo sapiens is 5.12.

Consider `C#CCNC1CCc2c(OCCOc3cccc(NC(C)=O)c3)cccc21` (centres undefined), for which the figures for the IC50 in assay [1] and in assay [2] were 5.52 µM and 8.3 µM, respectively. The Ratio IC50 in the assay filed under Homo sapiens came out at 1.5.

As to `C#CCNC1CCc2c(OCCOc3cccc(NC(=O)CCl)c3)cccc21` (centres undefined), the IC50 in assay [1] was 6.91 µM; in assay [2], over 60 µM. Also, in the assay listed under Homo sapiens, the Ratio IC50 is over 8.68.

Regarding `C#CCNC1CCc2c(OCCCOc3cccc(I)c3)cccc21` (centres undefined), the results for the IC50 in assay [1] and in assay [2] were 18 µM and over 60 µM, respectively. Besides, in the assay listed under Homo sapiens, the Ratio IC50 was over 3.33.

For the compound `C#CCNC1CCc2c(OCCc3ccccc3)cccc21` (centres undefined), the IC50 in assay [1] was found to be 3.87 µM; in assay [2] it was 9.1 µM. The Ratio IC50 in the assay filed under Homo sapiens is 2.35.

In the case of `C#CCNC1CCc2c(OCCCOc3cccc4ccccc34)cccc21` (centres undefined), the IC50 in assay [1] and in assay [2] was over 60 µM throughout.

Turning to `C#CCNC1CCc2c(OCc3cccc(F)c3)cccc21` (centres undefined), the IC50 in assay [1] came to 0.28 µM; in assay [2], 5.2 µM. In addition, the Ratio IC50 in the assay filed under Homo sapiens came out at 18.6.

On to `C#CCNC1CCc2c(OCCc3cccc(Cl)c3)cccc21` (centres undefined), for which the IC50 is 5.87 µM in assay [1] and over 60 µM in assay [2]. Also, the Ratio IC50 in the assay listed under Homo sapiens was over 10.2.

As for `C#CCNC1CCc2c(OCCCOc3ccccc3)cccc21` (centres undefined), the IC50 in assay [1] was 10.2 µM; in assay [2], over 60 µM. In addition, the Ratio IC50 in the assay filed under Homo sapiens was over 5.87.

For `C#CCNC1CCc2c(OCc3ccc(C(F)(F)F)cc3)cccc21` (centres undefined), the values for the IC50 in assay [1] and in assay [2] were 1.39 µM and over 60 µM, respectively. In addition, the Ratio IC50 in the assay listed under Homo sapiens was over 43.7.

For `C#CCNC1CCc2c(OCCCOc3ccc(CC)cc3)cccc21` (centres undefined), the IC50 in assay [1] was determined as 10.5 µM; in assay [2], 31.4 µM. Moreover, in the assay listed under Homo sapiens, the Ratio IC50 was found to be 2.99.

As to `C#CCNC1CCc2c(OCc3ccccc3)cccc21` (centres undefined), the IC50 was determined as 1.97 µM in assay [1] and 15.4 µM in assay [2]. The Ratio IC50 in the assay listed under Homo sapiens stood at 7.84.

`C#CCNC1CCc2c(OCCOc3cccc4ccccc34)cccc21` (centres undefined): the IC50 in assay [1] was 3.39 µM; in assay [2], over 60 µM. For the same compound, the Ratio IC50 in the assay filed under Homo sapiens was over 17.7.

As for `C#CCNC1CCc2c(OCCCOc3cc(C)c(Cl)c(C)c3)cccc21` (centres undefined), the IC50 was 6.91 µM in assay [1] and over 60 µM in assay [2]. In the assay listed under Homo sapiens, the Ratio IC50 is over 8.68.

Turning to `C#CCNC1CCc2c(OCc3cccc(Br)c3)cccc21` (centres undefined), the IC50 in assay [1] stood at 0.65 µM; in assay [2] it was 9.55 µM. In addition, the Ratio IC50 in the assay listed under Homo sapiens stood at 14.7.

As to `C#CCNC1CCc2c(OCc3ccc4ccccc4c3)cccc21` (centres undefined), the IC50 in assay [1] is 6.21 µM; in assay [2], over 60 µM. Further, the Ratio IC50 in the assay listed under Homo sapiens was over 9.66.

In the case of `C#CCNC1CCc2c(OCc3cccc(Cl)c3)cccc21` (centres undefined), the IC50 stood at 0.33 µM in assay [1] and 7 µM in assay [2]. Also, the Ratio IC50 in the assay filed under Homo sapiens came out at 21.2.

On to `C#CCNC1CCc2c(OCCc3ccc(Cl)cc3)cccc21` (centres undefined), for which the IC50 in assay [1] turned out to be 2.51 µM; in assay [2], 10.2 µM. Further, the Ratio IC50 in the assay filed under Homo sapiens was 4.07.

As for `C#CCNC1CCc2c(OCc3cccc(C)c3)cccc21` (centres undefined), the IC50 in assay [1] is 0.55 µM; in assay [2], 11.2 µM. Moreover, in the assay listed under Homo sapiens, the Ratio IC50 was 20.4.

Turning to `C#CCNC1CCc2c(OCCc3cccc(NC(=O)c4ccc(Cl)cc4)c3)cccc21` (centres undefined), the values for the IC50 in assay [1] and in assay [2] were 0.02 µM and 9.33 µM, respectively. Besides, the Ratio IC50 in the assay listed under Homo sapiens stood at 466.

As for `C#CCNC1CCc2c(OCc3ccc(F)cc3)cccc21` (centres undefined), the IC50 in assay [1] was found to be 1.87 µM; in assay [2] it was 7.8 µM. Also, in the assay listed under Homo sapiens, the Ratio IC50 was 4.17.

For the compound `C#CCNC1CCc2c(OCc3ccc(C)cc3)cccc21` (centres undefined), the IC50 in assay [1] was found to be 1.09 µM; in assay [2], 4.33 µM. Further, the Ratio IC50 in the assay filed under Homo sapiens came out at 3.97.

In the case of `C#CCNC1CCc2c(OCCOc3ccccc3)cccc21` (centres undefined), the IC50 was determined as 4.57 µM in assay [1] and 14.1 µM in assay [2]. Further, the Ratio IC50 in the assay listed under Homo sapiens came out at 3.08.

Take `C#CCNC1CCc2c(OCCCOc3ccc(C(C)C)cc3)cccc21` (centres undefined): the concentration for half-maximal inhibition (IC50) in assay [1] was determined as 5.38 µM; in assay [2] it was 42.7 µM. Moreover, in the assay filed under Homo sapiens, the Ratio IC50 is 7.93.

The IC50 is the concentration at which inhibition is half-maximal.

Source of the values: ChEMBL document CHEMBL4145484 (Eur J Med Chem, 2018).
